Measurements as given in US8343961B2, “Substituted heterocyclic compounds” (ArQule, Inc., priority 2009, dated 2013).

Experiments:
Tec kinase = molecular target: T1, Tec kinase (Homo sapiens, UniProt P42680); assay: Tec Kinase Activity Assay; assay type: biochemical; conditions: read-out: Tec % INH, at 30 uM
T1 sequence (P42680 1-631): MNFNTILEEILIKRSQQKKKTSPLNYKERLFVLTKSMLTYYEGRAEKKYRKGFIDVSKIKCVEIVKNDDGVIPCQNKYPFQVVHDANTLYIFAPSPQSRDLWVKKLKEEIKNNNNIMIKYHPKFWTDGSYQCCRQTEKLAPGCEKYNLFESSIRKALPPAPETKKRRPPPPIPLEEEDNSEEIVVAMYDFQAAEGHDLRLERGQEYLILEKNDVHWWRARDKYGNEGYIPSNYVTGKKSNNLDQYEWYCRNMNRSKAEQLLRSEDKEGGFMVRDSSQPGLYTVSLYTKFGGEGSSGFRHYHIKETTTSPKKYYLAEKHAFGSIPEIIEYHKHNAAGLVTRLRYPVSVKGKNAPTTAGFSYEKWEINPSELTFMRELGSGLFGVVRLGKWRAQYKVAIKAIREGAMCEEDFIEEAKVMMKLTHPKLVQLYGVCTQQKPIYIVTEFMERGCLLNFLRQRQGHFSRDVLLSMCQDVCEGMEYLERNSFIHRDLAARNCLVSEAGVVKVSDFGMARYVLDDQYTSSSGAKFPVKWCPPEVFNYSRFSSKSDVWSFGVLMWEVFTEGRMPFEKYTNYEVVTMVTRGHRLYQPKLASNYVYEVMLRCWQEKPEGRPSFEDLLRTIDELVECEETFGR
Description: (§1) The disclosed compounds were assayed for their ability to inhibit the activity of Tec kinase. Nunc Maxisorb plates were coated with streptavidin by overnight incubation with 100 μL per well of 1 μg/mL Streptavidin in DPBS. Prior to the start of the experiment, the plates were washed with TBST (3×200 μL) and blocked for at least 1 hour by adding 150 μL of 5% BSA/TBST. The plates were washed with TBST (3×200 μL/well) and left dry immediately before the capture step.
The test articles and controls (Staurosporine and Sutent) were prepared using the following assay buffer @ 3× desired final concentration (50 mM Tris-HCl, 0.02 mg/mL BSA, 10 mM MgCl2, 0.1 mM Na3VO4, 1 mM EGTA, 75 μM ATP0.01% NP-40, 2 mM DTT in 10% glycerol/water). In a reaction plate were added rapidly 20 μL test article (or control) and 20 μL TEC 0.25 ng/4. The plate was incubated for 30 minutes. To the reaction plate was added 20 μL of Pyk-2.5 ng/μL. The plate was incubated at room temperature for two hours. From the reaction plate, 50 μL was transferred to the streptavidin coated plate. The capture plate was incubated at room temperature for 30 minutes then washed 6× with TBST. To the capture plate was added 100 μL/well of Cell Signaling anti-phospho tyrosine at a dilution of 1:3000 in 2% BSA/TBST. The plate was incubated for one hour at room temperature then washed 6× with TBST. To the capture plate was added 100 μL/well of Alkaline Phosphatase Tagged Goat anti Mouse Antibody at a dilution of 1:4000 in 2% BSA/TBST. The plate was incubated for one hour at room temperature then washed 6× with TBST. The fluorescent readout was initiated by the addition of 100 μL/well of Attophos reagent (6 mg/10 mL). The reading was done on the Perkin Elmer Envision system.

RET kinase = RET kinase (Homo sapiens, UniProt P07949); assay: RET Kinase Activity Assay; assay type: biochemical; conditions: read-out: Ret, % INH, at 30 uM
Sequence of RET kinase (P07949 29-1114): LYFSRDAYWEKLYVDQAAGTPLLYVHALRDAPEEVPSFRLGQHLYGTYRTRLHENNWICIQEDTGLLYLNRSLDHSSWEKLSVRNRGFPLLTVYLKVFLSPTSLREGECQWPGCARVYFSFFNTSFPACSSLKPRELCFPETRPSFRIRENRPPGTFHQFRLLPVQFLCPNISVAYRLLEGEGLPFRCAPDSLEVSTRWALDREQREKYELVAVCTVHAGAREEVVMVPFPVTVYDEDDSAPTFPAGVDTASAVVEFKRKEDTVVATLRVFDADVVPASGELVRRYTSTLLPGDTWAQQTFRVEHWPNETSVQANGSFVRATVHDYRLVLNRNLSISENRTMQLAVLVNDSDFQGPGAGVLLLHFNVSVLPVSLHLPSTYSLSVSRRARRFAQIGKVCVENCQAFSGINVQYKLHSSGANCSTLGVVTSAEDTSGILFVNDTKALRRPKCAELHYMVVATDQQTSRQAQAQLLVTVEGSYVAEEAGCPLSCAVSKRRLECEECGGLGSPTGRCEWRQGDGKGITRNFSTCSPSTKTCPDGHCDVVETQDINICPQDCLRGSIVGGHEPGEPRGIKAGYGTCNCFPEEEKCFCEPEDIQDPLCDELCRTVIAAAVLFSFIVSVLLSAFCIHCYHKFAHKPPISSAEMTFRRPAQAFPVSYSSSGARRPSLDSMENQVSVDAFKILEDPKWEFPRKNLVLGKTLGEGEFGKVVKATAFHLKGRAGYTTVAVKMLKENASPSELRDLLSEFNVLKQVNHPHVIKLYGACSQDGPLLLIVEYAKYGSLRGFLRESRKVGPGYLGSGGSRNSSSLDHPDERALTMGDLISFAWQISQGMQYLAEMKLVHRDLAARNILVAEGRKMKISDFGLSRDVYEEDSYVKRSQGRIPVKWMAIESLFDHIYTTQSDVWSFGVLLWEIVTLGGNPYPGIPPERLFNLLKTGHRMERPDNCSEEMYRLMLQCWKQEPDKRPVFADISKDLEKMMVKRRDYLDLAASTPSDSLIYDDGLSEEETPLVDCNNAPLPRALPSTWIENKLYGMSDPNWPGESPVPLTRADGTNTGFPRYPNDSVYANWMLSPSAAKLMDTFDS
Description: as §1, with “RET” for “Tec”, “Maxwasorb” for “Maxisorb”, “[…])” for “μL/well)”
The test articles and controls (Staurosporine and Sutent) were prepared using the following assay buffer @ 3× desired final concentration (50 mM […], 0.02 mg/mL BSA, 10 mM MgCl2, 0.1 mM Na3VO4, 1 mM EGTA, 75 μM ATP0.01% NP-40, 2 mM DTT in 10% glycerol/water). In a reaction plate, were added rapidly 20 μL test article (or control) and 20 μL RET (0.25 ng/4 final concentration). The plate was incubated for 15 minutes. To the reaction plate was added 20 μL of Pyk-2 (0.25 ng/4 final concentration). The plate was incubated at room temperature for one hour.
From the reaction plate, 50 μL was transferred to the streptavidin coated plate. The capture plate was incubated at room temperature for 30 minutes then washed 6× with TBST. To the capture plate was added 100 μL/well of Cell Signaling anti-phospho tyrosine at a dilution of 1:3000 in 2% BSA/TBST. The plate was incubated for one hour at room temperature then washed 6× with TBST. To the capture plate was added 100 μL/well of Alkaline Phosphatase Tagged Goat anti Mouse Antibody at a dilution of 1:4000 in 2% BSA/TBST. The plate was incubated for one hour at room temperature then washed 6× with TBST. The fluorescent readout was initiated by the addition of 100 μL/well of Attophos reagent (6 mg/10 mL). The reading was done on the Perkin Elmer Envision system.

Row | inhibition at 30 µM (Tec kinase) | inhibition at 30 µM (RET kinase) | Structure (SMILES)
1 | < 50% | < 50% | COc1cc2c(cc1OC)C(c1ccccc1Cl)N(c1nc(N)nc3[nH]cnc13)CC2 (stereo not shown) [Compound 48, 6-[1-(2-chlorophenyl)-6,7-dimethoxy-3,4-dihydroisoquinolin-2(1H)-yl]-9H-purin-2-amine]
2 | < 50% | < 50% | COc1cc2c(cc1OC)C(c1cccc(C(F)(F)F)c1)N(c1nc(N)nc3[nH]cnc13)CC2 (stereo not shown) [Compound 50, 6-{6,7-dimethoxy-1-[3-(trifluoromethyl)phenyl]-3,4-dihydroisoquinolin-2(1H)-yl}-9H-purin-2-amine]
